{"source": "patent US20030064380A1", "about": "“Anergy-regulated molecules” (The Center For Blood Research, Inc., priority 2001, published 2003)", "key": {"[1]": {"tested_on": "caspase-3", "experiment": "Western blotting of ionomycin-treated T cells", "type": "cell-based, murine", "method": "Total cellular extracts were prepared by boiling cell pellets directly in SDS containing loading buffer to prevent proteolysis during cell lysis. Antibodies against caspase-3 (Santa Cruz) and active caspase-3 (Cell Signaling) were used. The polyclonal antibody 67.1 against NFAT1 has been described (Okamura et al., (2000) Mol. Cell. 6: 539-550).\nOf particular interest was the fact that several of the ionomycin-induced genes encoded proteins involved (or potentially involved) in protein degradation. Candidate genes in this category included caspase-3, SOCS-2 and Traf5 (FIG. 6B). Caspase-3 is an enzyme for which commercial reagents are readily available. Tests were conducted to determine whether caspase-3 was activated and functional in ionomycin-pretreated T cells. […] Further work will be necessary to establish whether proteolysis occurs in specific intracellular compartments relevant to TCR signal transduction or whether other signaling proteins are substrates for proteolysis in anergic cells."}, "[2]": {"tested_on": "D5 and Th1 cells", "experiment": "gene transcription profiles of ionomycin-induced genes (FIGS. 6B, 7B), Affymetrix arrays and real-time RT-PCR", "type": "cell-based, murine", "method": "D5 or primary T cells from NFAT1−/− or wild type DO11.10 transgenic mice were stimulated for 2, 6 or 16 hours with 500 nM ionomycin, 20 nM PMA plus 500 nM ionomycin, or 1 μM CsA plus 500 nM ionomycin. Total RNA was isolated with an RNeasy kit (QIAGEN). Ten μg of total RNA was quantitatively amplified and biotin-labeled as described (Byrne et al., (2000) “Preparation of mRNA for Expression Monitoring” Current Protocols in Molecular Biology (John Wiley & Sons, Inc.) pp. 22.22.21-22.22.13). Hybridization to GeneChips® (Affymetrix) displaying probes for 11,000 mouse genes/ESTs was performed at 40° C. overnight in a mix that included 10 μg fragmented RNA, 6× SSPE, 0.005% Triton X-100 and 100 μg/ml herring sperm DNA in a total volume of 200 μl. Chips were washed, stained with SA-PE and read using an Affymetrix GeneChip® scanner and accompanying gene expression software. […]\nTotal RNA was prepared from resting or stimulated T cells using Ultraspec reagent (Biotecx). cDNA was synthesized using oligo-dT primers and Superscript polymerase (Invitrogen) following the manufacturer's recommendations. Quantitative real-time PCR was performed in an I-Cycler (BioRad) using a SYBR Green PCR kit from Applied Biosystems and specific primers to amplify 100-200 bp fragments from the different genes analyzed. A threshold was set in the linear part of the amplification curve (fluorescence=f[cycle number]) and the number of cycles needed to reach it calculated for every gene. […]\nAmong them were many ESTs with no assigned function; a single cytokine gene, M-CSF; genes in other functional categories as shown in FIG. 6B; but no other genes normally associated with a productive immune response. […] To validate the array data, expression of 15 of the 18 genes were evaluated by quantitative real-time RT-PCR, and in every case ionomycin-mediated induction was confirmed (see numbers within panels of FIG. 6B). […]"}, "[3]": {"tested_on": "Th1 cells", "experiment": "cytokine mRNA induction in primary Th1 cells after tolerising pretreatment", "type": "cell-based, mice", "method": "The murine Th1 cell clone D5 (Ar-5) was cultured as previously described (Agarwal and Rao, (1998) Immunity 9: 765-775). Primary CD4+T cells were isolated from lymph nodes and spleen of NFAT1−/− or wild type DO11.10 transgenic mice using magnetic beads (Dynal), and differentiated in vitro by stimulating for one week with irradiated APC and 1 μg/ml OVA as previously described (Agarwal and Rao, (1998) Immunity 9: 765-775). Jurkat and Phoenix Ecotropic cells were cultured in Dulbecco's modified Eagle's medium supplemented with 10% fetal calf serum, 10 mM HEPES and 2 mM glutamine.\nTotal cellular RNA was purified from resting cells or cells stimulated with APC and antigen or anti-CD3 plus anti-CD28 for 4 h, using Ultraspec reagent (Biotecx) and analyzed using the RiboQuant multiprobe RNase protection kit and specific multi-set probes (Pharmingen) according to the manufacturer's instructions. Jurkat cells were transfected by electroporation in serum-free medium with pulses of 250 V and 960 μF with […] of pEGFPN1 (Clontech) or pNLS-NFAT1 (ST2+5+8) (Okamura et al., (2000) Mol. Cell. 6: 539-550). RNA from transiently transfected Jurkat cells was obtained after selecting transfected cells for expression of a cotransfected murine CD4 plasmid using magnetic beads (Dynal).\nThus the net effect of a tolerising stimulus on T cells is to skew the cytokine response towards production of the immunosuppressive cytokine […], while down-regulating production of multiple other cytokines and chemokines associated with a productive immune response.\nThe anergised cells were fully responsive to PMA and ionomycin, stimuli which bypass the membrane-proximal steps of TCR signal transduction."}, "[4]": {"tested_on": "NFAT, AP-1 and NFκB DNA-binding activity", "experiment": "electrophoretic mobility shift assay of nuclear extracts of stimulated Th1 cells", "type": "cell-based", "method": "Nuclear extracts were prepared from Th1 cells, unstimulated or stimulated for 60 minutes with 500 nM ionomycin or 20 nM PMA plus 500 nM ionomycin. Binding reactions were performed as previously described (Macian et al., (2000) EMBO J. 19: […]) using NFAT, AP-1 and NF-KB specific probes (Goldfeld et al., (1993) J. Exp. Med. 178: 1365-1379)."}, "[5]": {"settings": "primary Th1 cells, pretreatment, subsequent stimulation with antigen"}}, "data": [{"smiles": "C[C@H](CCC(=O)O)C[C@H](C)C[C@H](C)C(=O)/C=C(\\O)[C@H](C)C[C@H](C)C/C=C/[C@@H](C)[C@@H](O)[C@@H](C)[C@@H](O)C[C@@H]1CC[C@@](C)([C@H]2CC[C@@](C)([C@@H](C)O)O2)O1", "note": "[Ionomycin, ionomycin]", "values": [{"measurement": "caspase-3 protein (procaspase 3, p20 and active p17 forms)", "setting": "[1]; ionomycin-treated T cells, 6 h to 16-18 h", "result": "induced at the protein level and activated"}, {"measurement": "cleavage of Vav-1, Gads and PKC-theta", "setting": "[1]; treated D5 cells, Western blots", "result": "minor cleavage"}, {"measurement": "induction of Grg4, Ikaros, PTP-1B and GBP-3", "setting": "[2]; compared to PMA/ionomycin", "result": "more strongly induced"}, {"measurement": "induction of Rab-10", "setting": "[2]; early times", "result": "markedly induced"}, {"measurement": "induction of jumonji, CD98 and FasL", "setting": "[2]; ionomycin versus PMA/ionomycin", "result": "similarly induced"}, {"measurement": "induction of IL-2 and IFN-γ mRNA", "setting": "[3]; NFAT1−/− Th1 cells, after pretreatment", "result": "perceptible induction"}, {"measurement": "effect on Fas-L mRNA", "setting": "[3]; [5]", "result": "less effect"}, {"measurement": "induction of IL-2, IFN-γ, IL-10, TNF-α and MIP-1α mRNAs", "setting": "[3]; [5]", "result": "pronounced decrease"}, {"measurement": "induction of L-2 and IFN-γ mRNA", "setting": "[3]; wildtype DO11.10 Th1 T cells, pretreatment", "result": "markedly decreased"}, {"measurement": "AP-1 or NFκB DNA-binding activity", "setting": "[4]", "result": "no increase"}, {"measurement": "NFAT DNA-binding activity", "setting": "[4]", "result": "increased"}]}]}
